For orientation: solubility means the concentration that dissolves in the medium under given conditions. As a reminder, the IC50 is the concentration that gives 50% inhibition. Low values mean inhibition by little substance, high ones a need for much substance.

Data set [1] can be described thus: Compound solubility in water.
For a further data set, the target named is T1, acid ceramidase (Homo sapiens, UniProt Q13510).
T1 construct: Cell lysates overexpressing acid ceramidase were used as the enzyme source; expressed in transfected cells
T1 sequence (Q13510 22-395): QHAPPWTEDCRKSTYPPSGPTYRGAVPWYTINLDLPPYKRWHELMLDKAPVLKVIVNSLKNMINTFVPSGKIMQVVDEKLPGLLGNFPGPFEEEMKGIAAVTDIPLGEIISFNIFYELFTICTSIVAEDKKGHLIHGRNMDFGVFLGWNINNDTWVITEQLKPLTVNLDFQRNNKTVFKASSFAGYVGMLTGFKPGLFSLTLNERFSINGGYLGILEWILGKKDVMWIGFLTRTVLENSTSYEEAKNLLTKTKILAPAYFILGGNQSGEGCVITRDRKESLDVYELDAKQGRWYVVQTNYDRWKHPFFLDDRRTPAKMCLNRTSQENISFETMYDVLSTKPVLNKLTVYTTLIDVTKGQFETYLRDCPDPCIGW
As to the kind of experiment: Acid ceramidase inhibition, biochemical fluorescent assay with cell lysates overexpressing acid ceramidase, substrate Rbm14-12. Particulars: substrate Rbm14-12 6.3 μM. The method, then: The ability of exemplary compounds to inhibit acid ceramidase was measured.
Cell lysates overexpressing acid ceramidase were used as the enzyme source for compound potency determination in a biochemical fluorescent assay. Briefly, compounds were preincubated with 10 μg protein of cell lysates in a dose-response manner for 1 hr at RT in the assay buffer containing 25 mM NaAC and 100 mM NaCl, pH 4.5. The reaction was initiated by the addition of substrate Rbm14-12 at a final concentration of 6.3 μM. The reaction was run at RT for 1 hr before it was stopped by the addition of the stopping buffer containing 20% methanol (v/v), 1 mg/ml NaIO4, 0.1 M glycine, pH 10.6. The samples were incubated with the stopping buffer at RT for 1 hr to allow the fluorescent product to be formed. Finally, the plate was read with SpectraMax i3 plate reader (Molecular Devices) at ex360 nm and em446 nm. Data were collected and used to determine the IC50 values of compounds by curve fitting to the four-parameter inhibition equation.

Where [2] appears, read: pH 4.5, 1 hr preincubation at RT.

In brackets after ≈: the same amount, converted by molar mass.

`CCn1c(=O)n(C(=O)NCCc2ccccc2)c2ncccc21` [Example 127, 1-Ethyl-2-oxo-N-phenethyl-1H-imidazo[4,5-b]pyridine-3(2H)-carboxamide] yielded a solubility in data set [1] of 23 µg/mL (≈ 74.1 µM). The compound also gave an IC50 at acid ceramidase (setting [2]) of 200 to 1000 nM.
The compound `O=C(NCCCOc1ccccc1)n1cnc2ccccc21` [Example 43, N-(3-Phenoxypropyl)-1H-benzo[d]imidazole-1-carboxamide] gave a solubility in data set [1] of 3.5 µg/mL (≈ 11.9 µM). Moreover, at acid ceramidase (setting [2]), the IC50 is under 200 nM.
As for `CN1CCN(C2CN(c3cccc4c3ncn4C(=O)NCCOc3ccccc3)C2)CC1` [Example 314, 4-(3-(4-Methylpiperazin-1-yl)azetidin-1-yl)-N-(2-phenoxyethyl)-1H-benzo[d]imidazole-1-carboxamide], in data set [1], the concentration in solution (solubility) was 35 µg/mL (≈ 80.5 µM). The compound further showed a concentration for half-maximal inhibition (IC50) against acid ceramidase (pH 4.5) of under 200 nM.
As for `O=C(NCCc1ccccc1)n1cnc2cnccc21` [Example 20, N-Phenethyl-1H-imidazo[4,5-c]pyridine-1-carboxamide], the solubility in data set [1] is 5.3 µg/mL (≈ 19.9 µM). At acid ceramidase (setting [2]), this compound gave a 50% inhibitory concentration (IC50) of under 200 nM.
In the case of `CC(C)CCNC(=O)n1cnc2c(N3CC4CCC(C3)N4C)cccc21` [Example 161, N-iso-Pentyl-4-(8-methyl-3,8-diazabicyclo[3.2.1]-octan-3-yl)-1H-benzo[d]imidazole-1-carboxamide], the concentration in solution in data set [1] (solubility) was 35 µg/mL (≈ 98.5 µM). Moreover, the IC50 against acid ceramidase (pH 4.5) was 200 to 1000 nM.
In the same order, the values of `COc1nc2cc(N3CCOCC3)ccc2n1C(=O)NCCCc1ccco1` [Example 228b, N-(3-(furan-2-yl)propyl)-2-methoxy-5-morpholino-1H-benzo[d]imidazole-1-carboxamide] are 33 µg/mL (≈ 85.8 µM) and 200 to 1000 nM.
The compound `CC(C)CCNC(=O)n1cnc2c(N3CC4CCC(C3)O4)cccc21` [Example 221, 4-(8-Oxa-3-azabicyclo[3.2.1]octan-3-yl)-N-isopentyl-1H-benzo[d]imidazole-1-carboxamide] had a solubility in data set [1] of 5 µg/mL (≈ 14.6 µM). This compound showed an IC50 on acid ceramidase (pH 4.5) of 200 to 1000 nM.
The corresponding values for `CC(C)CCNC(=O)n1cnc2c(N3CC(N4CCN(C)CC4)C3)cccc21` [Example 205, N-iso-Pentyl-4-(3-(4-methylpiperazin-1-yl)-azetidine-1-yl)-1H-benzo[d]imidazole-1-carboxamide] are 31 µg/mL (≈ 80.6 µM) and 200 to 1000 nM.
In data set [1], `CC(C)CCNC(=O)n1cnc2c(N3C[C@H]4C[C@@H]3CO4)cccc21` [Example 166, 4-((1R,4R)-2-Oxa-5-azabicyclo[2.2.1]heptan-5-yl)-N-iso-pentyl-1H-benzo[d]imidazole-1-carboxamide] displayed a solubility of 12 µg/mL (≈ 36.5 µM). The compound further yielded an IC50 against acid ceramidase (pH 4.5) of 200 to 1000 nM.
In data set [1], `O=C(NCCCCc1ccccc1)n1cnc2ccccc21` [Example 6, N-(4-Phenylbutyl)-1H-benzo[d]imidazole-1-carboxamide] had a solubility of 1 µg/mL (≈ 3.41 µM). On acid ceramidase (setting [2]), the concentration for half-maximal inhibition (IC50) is under 200 nM.
As for `CCOc1nc2cc(N3CCOCC3)ccc2n1C(=O)NCCCc1ccccc1` [Example 189a, 2-Ethoxy-5-morpholino-N-(3-phenylpropyl)-1H-benzo[d]imidazole-1-carboxamide], in data set [1], the solubility was 2 µg/mL (≈ 4.9 µM). On acid ceramidase (pH 4.5), this compound had an IC50 of under 200 nM.
On to `COc1nc2c(C#N)cccc2n1C(=O)NCC1CCC(F)(F)CC1` [Example 139, 4-Cyano-N-((4,4-difluorocyclohexyl)methyl)-2-methoxy-1H-benzo[d]imidazole-1-carboxamide], for which the concentration in solution in data set [1] (solubility) was 9 µg/mL (≈ 25.8 µM). This compound gave a half-inhibitory concentration (IC50) against acid ceramidase (setting [2]) of under 200 nM.
The corresponding values for `CN(C)CCOc1nc2ccccc2n1C(=O)NCCc1ccccc1` [Example 89, 2-(2-(Dimethylamino)ethoxy)-N-phenethyl-1H-benzo[d]imidazole-1-carboxamide] are 27.6 µg/mL (≈ 78.3 µM) and under 200 nM.
`CN1CCC(c2cccc3c2ncn3C(=O)NCCCc2ccccc2)C1` (centres unmarked) [Example 267, 4-(1-Methylpyrrolidin-3-yl)-N-(3-phenylpropyl)-1H-benzo[d]imidazole-1-carboxamide]: in data set [1], the solubility came out at 25 µg/mL (≈ 69 µM). On acid ceramidase (pH 4.5), this compound had an IC50 of under 200 nM.
In the case of `CCCCNC(=O)n1cnc2ccc(F)cc21` [Example 69, N-Butyl-6-fluoro-1H-benzo[d]imidazole-1-carboxamide], the concentration in solution in data set [1] (solubility) came to 20.2 µg/mL (≈ 85.9 µM). For the same compound, the IC50 against acid ceramidase (setting [2]) is 200 to 1000 nM.
For `CC(C)CCNC(=O)n1cnc2c(N3CCN(C)C(CF)C3)cccc21` (centres unmarked) [Example 201, 4-(3-(Fluoromethyl)-4-methylpiperazin-1-yl)-N-isopentyl-1H-benzo[d]imidazole-1-carboxamide], the solubility in data set [1] came out at 28 µg/mL (≈ 77.5 µM). The same compound displayed a half-maximal inhibitory concentration (IC50) at acid ceramidase (pH 4.5) of 200 to 1000 nM.
The corresponding values for `COc1nc2cc(C3CCN(C)CC3)ccc2n1C(=O)NCC(C)C` [Example 193, N-iso-Butyl-2-methoxy-5-(1-methylpiperidin-4-yl)-1H-benzo[d]imidazole-1-carboxamide] are 39 µg/mL (≈ 113 µM) and over 1000 nM.
For the compound `CNC1CN(c2cccc3c2ncn3C(=O)NCCOc2ccccc2)C1` [Example 354, 4-(3-(Methylamino)azetidin-1-yl)-N-(2-phenoxyethyl)-1H-benzo[d]imidazole-1-carboxamide], the solubility in data set [1] came to 19 µg/mL (≈ 52 µM). This compound also came in with a half-inhibitory concentration (IC50) against acid ceramidase (setting [2]) of over 1000 nM.
`COc1nc2ccc(N3CCOCC3)cc2n1C(=O)NCCCc1nccs1` [Example 196, 2-Methoxy-6-morpholino-N-(3-(thiazol-2-yl)propyl)-1H-benzo[d]imidazole-1-carboxamide]: in data set [1], the concentration in solution (solubility) was 35 µg/mL (≈ 87.2 µM). The 50% inhibitory concentration (IC50) against acid ceramidase (pH 4.5) lay in the range of 200 to 1000 nM.
`O=C(NCCc1ccccc1)n1cnc2ncccc21` [Example 19a, N-Phenethyl-1H-imidazo[4,5-b]pyridine-1-carboxamide] had a solubility in data set [1] of 26.1 µg/mL (≈ 98 µM). The compound also yielded an IC50 against acid ceramidase (setting [2]) of under 200 nM.
In the same order, the values of `CCCCNC(=O)n1c(OCC)nc2ccccc21` [Example 97, N-Butyl-2-ethoxy-1H-benzo[d]imidazole-1-carboxamide] are 10.9 µg/mL (≈ 41.7 µM) and 200 to 1000 nM.
In the case of `COc1nc2ccc(-c3cncnc3)cc2n1C(=O)NCCC(C)C` [Example 106, N-iso-Pentyl-2-methoxy-6-(pyrimidin-5-yl)-1H-benzo[d]imidazole-1-carboxamide], in data set [1], the solubility is 13.7 µg/mL (≈ 40.4 µM). For the same compound, the IC50 against acid ceramidase (setting [2]) fell in the range of 200 to 1000 nM.
For `CC(C)CCNC(=O)n1cnc2c(N3CCN(C4CC4)C(=O)C3)cccc21` [Example 206, 4-(4-Cyclopropyl-3-oxopiperazin-1-yl)-N-isopentyl-1H-benzo[d]imidazole-1-carboxamide], the solubility in data set [1] came to 20 µg/mL (≈ 54.1 µM). In addition, the IC50 against acid ceramidase (pH 4.5) was in the range of 200 to 1000 nM.
The corresponding values for `CC(C)CCNC(=O)n1cnc2c(N3CCO[C@@H](C)C3)cccc21` [Example 171, (S)—N-iso-Pentyl-4-(2-methylmorpholino)-1H-benzo[d]imidazole-1-carboxamide] are 15 µg/mL (≈ 45.4 µM) and 200 to 1000 nM.
In the same order, the values of `CCC#CCNC(=O)n1cnc2c(N3CCN(C)CC3)cccc21` [Example 305, 4-(4-Methylpiperazin-1-yl)-N-(pent-2-yn-1-yl)-1H-benzo[d]imidazole-1-carboxamide] are 27 µg/mL (≈ 83 µM) and 200 to 1000 nM.
In data set [1], `CC(C)C#CCNC(=O)n1cnc2c(N3CC(N(C)C)C3)cccc21` [Example 355, 4-(3-(Dimethylamino)azetidin-1-yl)-N-(4-methylpent-2-yn-1-yl)-1H-benzo[d]imidazole-1-carboxamide] returned a solubility of 22 µg/mL (≈ 64.8 µM). Moreover, the half-maximal inhibitory concentration (IC50) on acid ceramidase (setting [2]) was 200 to 1000 nM.
`CN1CCC2CCN(c3cccc4c3ncn4C(=O)NCCCc3ccccc3)CC21` (centres unmarked) [Example 271, 4-(1-Methyloctahydro-6H-pyrrolo[2,3-c]pyridin-6-yl)-N-(3-phenylpropyl)-1H-benzo[d]imidazole-1-carboxamide]: in data set [1], the solubility is 22 µg/mL (≈ 52.7 µM). Also, at acid ceramidase (pH 4.5), the IC50 was under 200 nM.
As to `CCC(C)NC(=O)n1c(OC)nc2ccc(-c3cncnc3)cc21` (centres unmarked) [Example 109a, N-(sec-Butyl)-2-methoxy-6-(pyrimidin-5-yl)-1H-benzo[d]imidazole-1-carboxamide], in data set [1], the solubility was 28.7 µg/mL (≈ 88.2 µM). The 50% inhibitory concentration (IC50) at acid ceramidase (setting [2]) is over 1000 nM.
In the same order, the values of `CCCCNC(=O)n1cnc2cc(OC(F)(F)F)ccc21` [Example 70b, N-butyl-5-(trifluoromethoxy)-1H-benzo[d]imidazole-1-carboxamide] are 9.6 µg/mL (≈ 31.9 µM) and under 200 nM.
The corresponding values for `CN1CCN(c2cccc3c2ncn3C(=O)NCC2Oc3ccccc3O2)CC1` [Example 345, N-(Benzo[d][1,3]dioxol-2-ylmethyl)-4-(4-methylpiperazin-1-yl)-1H-benzo[d]imidazole-1-carboxamide] are 40 µg/mL (≈ 102 µM) and under 200 nM.
`COc1nc2ccc(N3CCOCC3)cc2n1C(=O)NCCCC1(C(F)(F)F)CC1` [Example 183a, 2-Methoxy-6-morpholino-N-(3-(1-(trifluoromethyl)cyclopropyl)propyl)-1H benzo[d]imidazole-1-carboxamide] had a solubility in data set [1] of 15 µg/mL (≈ 35.2 µM). Besides, the IC50 against acid ceramidase (pH 4.5) was under 200 nM.
